Where two headings read alike, the source gives them in different places.
Legend:
P. falciparum 3D7 = experiment: Asexual blood stage growth inhibition, SYBR Green I, 72 h; type: cell-based; conditions: Plasmodium falciparum, mean (standard error) of 3 biological replicates
Description: (§1) Asexual blood stage P. falciparum strains, including 3D7 and drug-resistant field isolates, were cultured using standard conditions in RPMI 1640 with 0.5% Albumax as described previously. EC₅₀ values were determined using a SYBR Green I fluorescence assay after 72 h of compound exposure. EC50 values were derived by nonlinear regression in GraphPad Prism version 10.

P. falciparum TM90_C2B = experiment: as above; type: cell-based; conditions: Plasmodium falciparum, mean (standard error) of 3 biological replicates
Description: as §1

P. falciparum K1 = experiment: as above; type: cell-based; conditions: Plasmodium falciparum, mean (standard error) of 3 biological replicates
Description: as §1

P. falciparum 7G8 = experiment: as above; type: cell-based; conditions: Plasmodium falciparum, mean (standard error) of 3 biological replicates
Description: as §1

[1] = Cellular cytotoxicity, hepatocyte nuclear counts; type: cell-based, human; conditions: human, primary cryopreserved human hepatocytes (lot BGW); cellular cytotoxicity
Excerpt: (§2) Primary cryopreserved hepatocytes were selected based on host-parasite compatibility: primary simian hepatocytes (lot OQB) for P. cynomolgi and human hepatocytes (lot BGW) for P. falciparum (BioIVT Inc., Baltimore, MD, USA). Cells were thawed according to the manufacturer’s protocol and seeded into 384-well collagen-coated assay plates (Greiner Bio-One, Monroe, NC, USA) using InVitroGro CP plating medium (BioIVT). Seeding densities were optimized for uniform monolayer formation, and hepatocytes were allowed to adhere for 24–48 hours before infection. Sporozoites were added at a 1:1.1 hepatocyte-to-sporozoite ratio within 48 hours post-seeding. Automated robotic systems were used for media changes and compound additions to ensure assay consistency and minimize variability associated with manual pipetting.
(§3) Test compounds (PfPKG inhibitors) and assay drug controls (KDU-691 and tafenoquine) were solubilized in DMSO or PBS and serially diluted into 8- or 12-point, 2- or 3-fold series, achieving final assay concentrations ranging from 20 µM to 0.019 µM. […]
(§4) High-content imaging was performed using the Operetta CLS system (Revvity) and image analysis was performed with Harmony software version 4.9 (Revvity, Waltham, MA, USA). Images were acquired at 10x or 20x magnification using DAPI and TRITC fluorescence channels. Following the established protocol, parasites were classified as hypnozoites or schizonts based on fluorescence intensity (mean and maximum), morphological features (cell roundness and size), and segmentation criteria. […] Hepatocyte viability was determined by quantifying nuclear counts per well using Hoechst stain intensity thresholds. […] An in-house built Python-based image analysis script identified parasite objects using predefined fluorescence intensity thresholds. […] Parasite size was quantified by calculating the average object area (µm²) of validated parasite structures per well. […] Dose-response inhibition and IC50 were calculated relative to in-plate negative controls (DMSO-treated wells). […]

[2] = system: primary human hepatocytes; experiment: Cellular cytotoxicity, hepatocyte nuclear counts; type: cell-based; conditions: primary human hepatocytes
Excerpt: as §2, §3, §4

ROCK2 = biological target: T1, ROCK2 (Homo sapiens, UniProt O75116); experiment: DiscoverX scanMAX competition binding at 1 µM; conditions: 1 μM compound
T1 construct: purchased Eurofins (DiscoverX)
T1 sequence (O75116 whole entry): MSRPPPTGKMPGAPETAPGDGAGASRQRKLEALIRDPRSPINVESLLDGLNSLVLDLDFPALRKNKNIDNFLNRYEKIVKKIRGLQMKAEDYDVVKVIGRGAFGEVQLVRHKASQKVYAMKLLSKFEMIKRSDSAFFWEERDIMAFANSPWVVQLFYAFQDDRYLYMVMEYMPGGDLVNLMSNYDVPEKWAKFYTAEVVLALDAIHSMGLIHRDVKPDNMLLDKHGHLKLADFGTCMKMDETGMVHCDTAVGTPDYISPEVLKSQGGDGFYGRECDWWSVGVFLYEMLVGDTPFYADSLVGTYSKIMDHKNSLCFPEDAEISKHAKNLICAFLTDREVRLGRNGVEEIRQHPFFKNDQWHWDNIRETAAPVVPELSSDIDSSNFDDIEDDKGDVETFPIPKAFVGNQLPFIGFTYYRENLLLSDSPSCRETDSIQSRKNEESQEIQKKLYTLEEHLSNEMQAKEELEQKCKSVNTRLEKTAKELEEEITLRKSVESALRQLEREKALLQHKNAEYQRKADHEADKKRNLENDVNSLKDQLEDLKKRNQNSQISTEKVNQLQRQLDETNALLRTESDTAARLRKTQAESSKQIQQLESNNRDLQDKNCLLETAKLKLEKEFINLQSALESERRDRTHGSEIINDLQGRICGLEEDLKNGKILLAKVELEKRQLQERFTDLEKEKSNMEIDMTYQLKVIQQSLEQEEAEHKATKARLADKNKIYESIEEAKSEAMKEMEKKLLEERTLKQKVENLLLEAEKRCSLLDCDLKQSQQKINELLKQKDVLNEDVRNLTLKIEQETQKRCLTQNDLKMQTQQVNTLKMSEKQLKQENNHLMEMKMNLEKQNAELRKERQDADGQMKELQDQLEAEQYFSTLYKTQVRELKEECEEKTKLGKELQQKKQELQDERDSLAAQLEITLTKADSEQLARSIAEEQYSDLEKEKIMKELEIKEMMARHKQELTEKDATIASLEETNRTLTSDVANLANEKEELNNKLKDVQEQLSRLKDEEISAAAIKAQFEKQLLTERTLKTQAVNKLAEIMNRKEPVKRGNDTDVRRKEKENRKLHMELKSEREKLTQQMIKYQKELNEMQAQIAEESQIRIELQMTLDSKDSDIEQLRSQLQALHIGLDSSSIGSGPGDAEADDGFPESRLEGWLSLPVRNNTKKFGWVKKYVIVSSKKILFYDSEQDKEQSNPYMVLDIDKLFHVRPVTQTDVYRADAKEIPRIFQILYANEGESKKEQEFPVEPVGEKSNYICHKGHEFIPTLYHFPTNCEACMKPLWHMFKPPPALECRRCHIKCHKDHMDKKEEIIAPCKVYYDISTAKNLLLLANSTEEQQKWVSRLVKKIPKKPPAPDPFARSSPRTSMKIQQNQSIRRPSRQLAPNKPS
Description: (§5) A major issue affecting the further development of RUPB-61 is its human-kinome selectivity. To identify its significant off-target liabilities, we quantified its binding affinity for 400 unique human kinases (S4 Fig). The screen consists of binding competitions between the test compound and control ligands for each of the target human kinases.
(§6) Off-target kinase inhibition was assessed using the DiscoverX scanMAX (Eurofins) panel at 1 µM compound concentration. Binding affinities of CIT, ROCK1 and ROCK2 were evaluated using the KdElect assay (Eurofins).

CIT = biological target: T2, CIT (Homo sapiens, UniProt O14578); experiment: DiscoverX scanMAX competition binding at 1 µM; conditions: 1 μM compound
T2 construct: purchased Eurofins (DiscoverX)
T2 sequence (O14578 whole entry): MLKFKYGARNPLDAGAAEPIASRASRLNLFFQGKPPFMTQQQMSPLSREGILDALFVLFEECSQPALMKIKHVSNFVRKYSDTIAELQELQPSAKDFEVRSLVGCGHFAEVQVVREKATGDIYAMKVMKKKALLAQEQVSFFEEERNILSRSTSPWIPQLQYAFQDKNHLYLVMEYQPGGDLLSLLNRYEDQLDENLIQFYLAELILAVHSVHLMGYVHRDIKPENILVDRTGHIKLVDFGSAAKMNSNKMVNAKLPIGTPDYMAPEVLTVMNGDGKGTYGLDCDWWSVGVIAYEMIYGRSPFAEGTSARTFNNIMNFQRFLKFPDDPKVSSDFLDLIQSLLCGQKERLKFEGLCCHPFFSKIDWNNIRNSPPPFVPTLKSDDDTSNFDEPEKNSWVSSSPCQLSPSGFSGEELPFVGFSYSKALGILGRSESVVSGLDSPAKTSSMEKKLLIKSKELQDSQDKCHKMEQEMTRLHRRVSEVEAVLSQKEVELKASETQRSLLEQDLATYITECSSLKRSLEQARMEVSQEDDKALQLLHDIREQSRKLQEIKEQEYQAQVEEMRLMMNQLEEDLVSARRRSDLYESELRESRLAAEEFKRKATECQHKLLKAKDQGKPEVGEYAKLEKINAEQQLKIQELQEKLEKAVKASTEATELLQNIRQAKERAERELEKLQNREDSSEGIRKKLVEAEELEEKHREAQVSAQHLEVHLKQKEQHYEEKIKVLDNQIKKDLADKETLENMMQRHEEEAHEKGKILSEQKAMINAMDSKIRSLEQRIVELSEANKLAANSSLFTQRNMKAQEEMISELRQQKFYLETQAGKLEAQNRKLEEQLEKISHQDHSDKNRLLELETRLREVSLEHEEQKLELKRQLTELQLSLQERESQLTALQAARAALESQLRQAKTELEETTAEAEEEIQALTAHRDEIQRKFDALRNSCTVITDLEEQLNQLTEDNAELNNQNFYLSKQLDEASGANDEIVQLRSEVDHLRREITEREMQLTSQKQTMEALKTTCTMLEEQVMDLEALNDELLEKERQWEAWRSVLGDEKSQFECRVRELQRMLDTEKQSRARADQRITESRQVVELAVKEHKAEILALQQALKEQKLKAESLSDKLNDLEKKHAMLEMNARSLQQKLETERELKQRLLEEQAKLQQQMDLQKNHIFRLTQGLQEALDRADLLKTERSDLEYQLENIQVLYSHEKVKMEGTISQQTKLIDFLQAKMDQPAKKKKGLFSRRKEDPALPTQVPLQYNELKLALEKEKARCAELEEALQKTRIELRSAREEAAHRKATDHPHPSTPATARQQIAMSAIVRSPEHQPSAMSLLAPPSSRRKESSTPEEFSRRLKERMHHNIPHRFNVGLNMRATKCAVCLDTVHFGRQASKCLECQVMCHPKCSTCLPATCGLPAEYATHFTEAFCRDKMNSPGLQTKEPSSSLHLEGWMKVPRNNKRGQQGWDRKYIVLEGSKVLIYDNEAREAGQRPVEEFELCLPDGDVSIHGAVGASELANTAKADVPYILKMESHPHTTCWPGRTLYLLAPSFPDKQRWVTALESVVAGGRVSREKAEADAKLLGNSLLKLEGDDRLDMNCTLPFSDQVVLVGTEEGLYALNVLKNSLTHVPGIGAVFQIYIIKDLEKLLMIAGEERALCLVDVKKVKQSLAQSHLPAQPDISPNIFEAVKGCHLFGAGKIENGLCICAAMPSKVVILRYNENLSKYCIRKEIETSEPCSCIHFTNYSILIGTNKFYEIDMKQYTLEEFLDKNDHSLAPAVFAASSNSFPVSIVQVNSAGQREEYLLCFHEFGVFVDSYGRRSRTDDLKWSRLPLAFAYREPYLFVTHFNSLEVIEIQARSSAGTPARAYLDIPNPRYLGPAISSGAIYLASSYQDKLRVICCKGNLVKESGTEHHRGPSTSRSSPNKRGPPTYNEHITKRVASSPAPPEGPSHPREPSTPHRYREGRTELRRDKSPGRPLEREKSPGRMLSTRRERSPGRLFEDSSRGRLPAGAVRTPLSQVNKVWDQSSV
Description: as §5, §6

ROCK1 = biological target: T3, ROCK1 (Homo sapiens, UniProt Q13464); experiment: DiscoverX scanMAX competition binding at 1 µM; conditions: 1 μM compound
T3 construct: purchased Eurofins (DiscoverX)
T3 sequence (Q13464 whole entry): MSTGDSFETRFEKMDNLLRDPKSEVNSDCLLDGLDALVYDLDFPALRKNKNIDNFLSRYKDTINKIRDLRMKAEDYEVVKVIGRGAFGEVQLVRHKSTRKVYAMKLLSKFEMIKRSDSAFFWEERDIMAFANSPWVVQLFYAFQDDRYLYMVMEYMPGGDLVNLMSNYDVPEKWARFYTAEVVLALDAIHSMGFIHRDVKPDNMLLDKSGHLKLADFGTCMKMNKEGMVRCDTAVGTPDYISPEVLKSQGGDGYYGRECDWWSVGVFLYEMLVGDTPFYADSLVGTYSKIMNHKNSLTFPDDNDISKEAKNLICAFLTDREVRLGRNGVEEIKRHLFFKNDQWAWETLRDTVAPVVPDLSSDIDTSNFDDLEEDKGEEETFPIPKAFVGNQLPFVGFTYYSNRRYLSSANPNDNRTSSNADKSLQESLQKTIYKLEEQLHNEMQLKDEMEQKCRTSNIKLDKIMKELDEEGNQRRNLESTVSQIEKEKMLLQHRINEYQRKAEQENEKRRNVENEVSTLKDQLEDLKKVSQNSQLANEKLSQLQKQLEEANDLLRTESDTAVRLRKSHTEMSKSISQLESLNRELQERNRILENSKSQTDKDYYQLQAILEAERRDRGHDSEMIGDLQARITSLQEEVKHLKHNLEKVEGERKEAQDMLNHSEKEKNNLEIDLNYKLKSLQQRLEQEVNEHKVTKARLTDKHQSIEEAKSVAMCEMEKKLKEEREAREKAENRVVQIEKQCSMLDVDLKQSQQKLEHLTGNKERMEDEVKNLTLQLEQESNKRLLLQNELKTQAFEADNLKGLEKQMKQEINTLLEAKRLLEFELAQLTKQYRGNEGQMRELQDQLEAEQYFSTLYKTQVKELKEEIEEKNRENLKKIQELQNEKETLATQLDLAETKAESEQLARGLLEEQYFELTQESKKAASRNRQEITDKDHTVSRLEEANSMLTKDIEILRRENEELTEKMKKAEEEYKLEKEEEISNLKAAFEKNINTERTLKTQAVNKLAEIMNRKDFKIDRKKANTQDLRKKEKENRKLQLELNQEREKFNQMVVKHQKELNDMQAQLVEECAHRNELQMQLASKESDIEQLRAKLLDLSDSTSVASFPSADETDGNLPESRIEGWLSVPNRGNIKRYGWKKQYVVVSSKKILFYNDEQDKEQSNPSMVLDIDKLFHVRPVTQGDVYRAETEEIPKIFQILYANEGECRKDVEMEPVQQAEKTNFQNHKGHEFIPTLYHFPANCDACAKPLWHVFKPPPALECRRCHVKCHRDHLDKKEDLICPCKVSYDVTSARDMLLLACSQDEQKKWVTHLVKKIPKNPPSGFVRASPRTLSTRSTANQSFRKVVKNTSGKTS
Description: as §5, §6

[3] = Cellular cytotoxicity, hepatocyte nuclear counts; type: cell-based, simian; conditions: simian, primary cryopreserved simian hepatocytes (lot OQB); cellular cytotoxicity
Excerpt: as §2
Test compounds (PfPKG inhibitors) and assay drug controls (KDU-691 and tafenoquine) were solubilized in DMSO or PBS and serially diluted into 8- or 12-point, 2- or 3-fold series, achieving final assay concentrations ranging from 20 µM to 0.019 µM. Compounds were introduced using a calibrated pin tool controlled by robotic arms (V&P Scientific), ensuring a 1:1000 dilution into assay wells. Media were replenished daily with fresh drug-containing HCM. Compounds were added 1-hour post-infection (p.i.) (day 0) and administered daily for 3 days. Cells were fixed on day 6 p.i. of P. falciparum culture and day 8 for P. cynomolgi infected culture, coinciding with liver stage schizont maturation.
High-content imaging was performed using the Operetta CLS system (Revvity) and image analysis was performed with Harmony software version 4.9 (Revvity, Waltham, MA, USA). Images were acquired at 10x or 20x magnification using DAPI and TRITC fluorescence channels. Following the established protocol, parasites were classified as hypnozoites or schizonts based on fluorescence intensity (mean and maximum), morphological features (cell roundness and size), and segmentation criteria. Hepatocyte nuclei were identified using Hoechst 33342 staining. Background signal was captured in uninfected, stained wells and subjected to the same parasite detection algorithm. Estimate erroneous parasite counts were then subtracted from infected well counts. Hepatocyte viability was determined by quantifying nuclear counts per well using Hoechst stain intensity thresholds. […] An in-house built Python-based image analysis script identified parasite objects using predefined fluorescence intensity thresholds. […] Parasite size was quantified by calculating the average object area (µm²) of validated parasite structures per well. […] Dose-response inhibition and IC50 were calculated relative to in-plate negative controls (DMSO-treated wells). […]

[4] = Pharmacokinetics in mice after oral or intravenous dosing; type: in vivo
Description: Plasma concentrations were measured by LC-MS/MS. Non-compartmental PK parameters were calculated using Phoenix WinNonlin. Human half-life predictions were derived by allometric scaling for half-life (t1/2): t1/2,human = t1/2,mouse × (Whuman/Wmouse)^0.25, where W = body weight. The exponent 0.25 is commonly used for time-based pharmacokinetic parameters. We assume an average mouse weight of 0.025 kg and an average human weight of 70 kg.

[5] = system: P. berghei sporozoites (PbLuc-GFP); experiment: In vivo chemoprotective efficacy against sporozoite liver infection; set-up: species or system Plasmodium berghei in mice
[6] = mouse, plasma, iv, 10 mg/kg, mice, IV 10 mg/kg, average of 3 mice
[7] = mouse, plasma, po, 10 mg/kg, mice, PO 10 mg/kg, average of 3 mice
[8] = Intravenous, 10 mg/kg x1 (-0.5 hpi)

With `C[C@@H]1CN(C)CC[C@@H]1c1cc(-c2ccncc2)c(-c2ccc(F)cc2)[nH]1.Cl.Cl` [RUPB-61, 4-{5-[(3S,4S)-1,3-Dimethylpiperidin-4-yl]-2-(4-fluorophenyl)-1H-pyrrol-3-yl}pyridine Dihydrochloride] the IC50 (P. falciparum 3D7) was 50 nM, the IC50 (P. falciparum TM90_C2B) was 139 nM and the IC50 (P. falciparum K1) was 42 nM. The IC50 (P. falciparum 7G8) was 29 nM, the CC50 at 3 days [1] was over 20000 nM and the “cytotoxicity against PHH” value [2] was “no cytotoxicity”. For the same compound, the “displacement of control ligand for ROCK2” value (ROCK2) was over 99%, the “displacement of control ligand for CIT” value (CIT) was over 99% and the “displacement of control ligand for ROCK1” value (ROCK1) was over 99%. For the same compound, the CC50 at 3 days [3] was over 20000 nM, the “human half-life range by allometric scaling” value ([4]; exponent 0.25, mouse 0.025 kg, human 70 kg) was 67.5 to 90 h and the “half-life in humans by allometric scaling” value ([4]; humans, scaled from mouse oral half-life) was 48 to 96 h. It also gave a plasma exposure maintained ([4]; mice, 10 mg/kg, for 24 h) of over 100 nM, a Vss obs ([4]; mice, IV 10 mg/kg, average of 3 mice, 10 mg/kg) of 47.29 L/kg and a Bioavailability ([4]; mice, PO vs IV 10 mg/kg, 10 mg/kg) of 91 %F. For the same compound, the AUC(0-t) [4, 6] was 7.43 µM·h, the half-life [4, 6] was 11.8 h and the AUC(0-inf) ([4]; mouse, plasma, iv, 10 mg/kg, mice, IV 10 mg/kg, average of 3 mice, read-out: AUC INF_obs) was 9.8 µM·h. The clearance ([4]; mouse, plasma, iv, 10 mg/kg, mice, IV 10 mg/kg, average of 3 mice, read-out: Cl_obs) was 49.2 mL/min/kg, the Vd ([4]; mouse, plasma, iv, 10 mg/kg, mice, IV 10 mg/kg, average of 3 mice, read-out: Vss obs) was 47.3 L/kg and the clearance ([4]; mouse, plasma, other: oral and intravenous, 10 mg/kg, mice, 10 mg/kg oral and intravenous, read-out: relative clearance) was about 50 mL/min/kg. For the same compound, the Cmax [4, 7] was 630 nM, the Tmax [4, 7] was 4.17 h and the AUC(0-inf) ([4]; mouse, plasma, po, 10 mg/kg, mice, PO 10 mg/kg, average of 3 mice, read-out: AUCINF_obs) was 8.9 µM·h. For the same compound, the “No. of mice patent by D21/ No. of mice inoculated” value [5, 8] was 0/5, the “Prepatent period mean ± sd” value [5, 8] was “negative” and the “No. of mice patent by D21/ No. of mice inoculated” value ([5]; Oral, 10 mg/kg x1 (-3 hpi)) was 0/5. The “Prepatent period mean ± sd” value ([5]; Oral, 10 mg/kg x1 (-3 hpi)) was “negative” and the “mice developing detectable blood stage infection in the 3-week monitoring period” value ([5]; single dose 10 mg/kg, PO (-3 hpi) and IV (-0.5 hpi), 10 mice) was “none”.

Source: paper PMC13422867, “An orally available PfPKG inhibitor blocks Plasmodium’s infection of the liver” (PLOS Pathogens, 2026)
